Experimental data taken from ChEMBL document CHEMBL1201862, “PubChem BioAssay data set” (2004).
The source made the active and inactive calls.

What was measured:
cells [1] = assay type: functional
[2] = molecular target: Acyl-homoserine lactone acylase PvdQ (Pseudomonas aeruginosa (strain LESB58), UniProt Q9I194); experiment: P. aeruginosa PvdQ acylase inhibitors, dose response, biochemical, fluorescence, plate reader and imaging, cherry-picks (AID 493231)
[3] = A cytotoxicity screen of small molecule inhibitors of the PhoP region in Salmonella typhi identified in the primary screen. [Related pubchem assays: 1850, 1864, 1985 ]; assay type: functional
Hexokinase HKDC1 = Hexokinase HKDC1 (Homo sapiens, UniProt Q2TB90); experiment: HKDC1 hexokinase inhibitors, dose response, biochemical, W721R variant (AID 504729); assay type: functional
Genome polyprotein = Genome polyprotein (dengue virus type 2, UniProt P29990); experiment: Dengue-2 NS5 methyltransferase inhibitors, primary screen, biochemical, confirmation dose response (AID 588689); assay type: functional
Melanocortin receptor 4 = Melanocortin receptor 4 (Homo sapiens, UniProt P32245); assay type: functional, cell-based;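 also: Cell-based assay with luminescence read-out, confirmatory dose-response testing for agonist activity of biased ligands at MC4R; human U2OS cells with tagged receptor and beta-arrestin; potency of agonists that increase receptor coupling to beta-arrestin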
[4] = molecular target: Neurotensin receptor type 1 (Homo sapiens, UniProt P30989); assay type: functional;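 also: Image-based confirmatory dose-response assay measuring agonist activity at NTR1; NTR1-expressing U2OS osteosarcoma cells imaged for beta-arrestin GFP spot formation; agonist potency where compounds increase beta-arrestin recruitment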
[5] = A High Throughput Confirmatory Assay used to Identify Novel Compounds that Inhibit Mycobacterium Tuberculosis in the absence of Glycerol.; assay type: functional
[6] = molecular target: T1, Voltage-gated N-type calcium channel alpha-1B subunit/Amyloid beta A4 precursor protein-binding family A member 1 (Homo sapiens, UniProt Q00975+Q02410); assay type: protein assay
[7] = molecular target: Eukaryotic translation initiation factor 4E (Mus musculus, UniProt P63073); experiment: eIF4E–eIF4G protein interaction inhibitors, dose response, biochemical, TR-FRET (AID 855); assay type: functional;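 also: potency for disrupting eIF4E binding to eIF4GI seen as loss of FRET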
[8] = molecular target: T2, Mannose-6-phosphate isomerase (Homo sapiens, UniProt P34949); experiment: inhibitors of human PMI, primary screen, biochemical, fluorescence intensity, coupled assay (AID 1209)
T2 sequence (P34949 whole entry): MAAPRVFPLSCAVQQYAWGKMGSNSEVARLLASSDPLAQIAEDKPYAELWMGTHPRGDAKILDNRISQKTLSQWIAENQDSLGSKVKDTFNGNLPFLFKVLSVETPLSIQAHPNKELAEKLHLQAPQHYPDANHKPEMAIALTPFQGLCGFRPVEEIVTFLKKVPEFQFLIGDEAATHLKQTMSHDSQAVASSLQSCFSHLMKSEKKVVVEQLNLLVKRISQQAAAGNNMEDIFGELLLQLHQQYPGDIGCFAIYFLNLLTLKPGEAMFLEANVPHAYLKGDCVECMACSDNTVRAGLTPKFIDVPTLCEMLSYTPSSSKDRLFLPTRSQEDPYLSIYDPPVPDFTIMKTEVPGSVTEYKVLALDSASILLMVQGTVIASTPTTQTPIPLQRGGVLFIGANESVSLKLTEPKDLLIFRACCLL

[9] = molecular target: T1, Voltage-gated N-type calcium channel alpha-1B subunit/Amyloid beta A4 precursor protein-binding family A member 1; assay type: protein assay; remark: listed apart in the source
[10] = molecular target: Glucose-6-phosphate 1-dehydrogenase (Homo sapiens, UniProt P11413); experiment: human G6PD enzyme inhibitors, dose response, selectivity assay for P. falciparum G6PD inhibitor project, biochemical, fluorescence (AID 504792); assay type: functional
[11] = A Cell Based Secondary Assay To Explore Cytotoxicity of Compounds that Sensitize Mycobacterium Tuberculosis to Beta-Lactam Antibiotics.; assay type: functional
Cytochrome P450 2D6 = Cytochrome P450 2D6 (Homo sapiens, UniProt P10635); experiment: qHTS Assay for Inhibitors and Substrates of Cytochrome P450 2D6. [Related pubchem assays: 410 ]; assay type: ADME; conditions: read-out: Potency
Cytochrome P450 2C9 = Cytochrome P450 2C9 (Homo sapiens, UniProt P11712); conditions: Potency
[12] = molecular target: T2, Mannose-6-phosphate isomerase; experiment: human PMI inhibitors, high substrate, primary screen, biochemical, fluorescence intensity, high mannose 6-phosphate (AID 1220)
cells [13] = experiment: cells
[14] = molecular target: T3, Neuropeptide Y receptor type 2 (Homo sapiens, UniProt P49146); experiment: NPY-Y2 antagonist potency, selectivity check, dose response, counter-screen for NPY-Y1 antagonist project, cell-based (AID 1278); assay type: functional
T3 sequence (P49146 whole entry): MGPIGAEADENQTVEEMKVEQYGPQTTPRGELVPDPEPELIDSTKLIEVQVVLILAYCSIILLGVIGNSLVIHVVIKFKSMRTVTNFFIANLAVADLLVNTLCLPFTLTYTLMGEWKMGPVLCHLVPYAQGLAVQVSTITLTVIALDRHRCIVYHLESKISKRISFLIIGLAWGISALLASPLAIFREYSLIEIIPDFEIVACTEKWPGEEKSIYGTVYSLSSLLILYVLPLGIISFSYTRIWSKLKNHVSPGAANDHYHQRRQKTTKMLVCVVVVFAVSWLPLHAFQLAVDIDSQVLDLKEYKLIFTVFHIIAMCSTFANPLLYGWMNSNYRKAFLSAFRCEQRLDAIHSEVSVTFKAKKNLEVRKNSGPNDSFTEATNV

[15] = molecular target: T4, Neuropeptide Y receptor type 1 (Homo sapiens, UniProt P25929); experiment: NPY-Y1 receptor antagonist potency, dose response, cell-based (AID 1277); assay type: functional
T4 sequence (P25929 whole entry): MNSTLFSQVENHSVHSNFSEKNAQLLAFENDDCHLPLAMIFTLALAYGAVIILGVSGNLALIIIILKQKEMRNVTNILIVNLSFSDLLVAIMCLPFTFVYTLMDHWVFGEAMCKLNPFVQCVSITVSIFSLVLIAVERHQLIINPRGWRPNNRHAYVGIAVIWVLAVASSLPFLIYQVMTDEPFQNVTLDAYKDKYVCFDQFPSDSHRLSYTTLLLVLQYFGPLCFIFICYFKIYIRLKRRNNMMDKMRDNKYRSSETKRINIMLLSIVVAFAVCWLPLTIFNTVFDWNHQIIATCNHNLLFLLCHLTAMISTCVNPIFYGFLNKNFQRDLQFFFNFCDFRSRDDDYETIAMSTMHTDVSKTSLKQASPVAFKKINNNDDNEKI

T1 sequence (Q00975 whole entry): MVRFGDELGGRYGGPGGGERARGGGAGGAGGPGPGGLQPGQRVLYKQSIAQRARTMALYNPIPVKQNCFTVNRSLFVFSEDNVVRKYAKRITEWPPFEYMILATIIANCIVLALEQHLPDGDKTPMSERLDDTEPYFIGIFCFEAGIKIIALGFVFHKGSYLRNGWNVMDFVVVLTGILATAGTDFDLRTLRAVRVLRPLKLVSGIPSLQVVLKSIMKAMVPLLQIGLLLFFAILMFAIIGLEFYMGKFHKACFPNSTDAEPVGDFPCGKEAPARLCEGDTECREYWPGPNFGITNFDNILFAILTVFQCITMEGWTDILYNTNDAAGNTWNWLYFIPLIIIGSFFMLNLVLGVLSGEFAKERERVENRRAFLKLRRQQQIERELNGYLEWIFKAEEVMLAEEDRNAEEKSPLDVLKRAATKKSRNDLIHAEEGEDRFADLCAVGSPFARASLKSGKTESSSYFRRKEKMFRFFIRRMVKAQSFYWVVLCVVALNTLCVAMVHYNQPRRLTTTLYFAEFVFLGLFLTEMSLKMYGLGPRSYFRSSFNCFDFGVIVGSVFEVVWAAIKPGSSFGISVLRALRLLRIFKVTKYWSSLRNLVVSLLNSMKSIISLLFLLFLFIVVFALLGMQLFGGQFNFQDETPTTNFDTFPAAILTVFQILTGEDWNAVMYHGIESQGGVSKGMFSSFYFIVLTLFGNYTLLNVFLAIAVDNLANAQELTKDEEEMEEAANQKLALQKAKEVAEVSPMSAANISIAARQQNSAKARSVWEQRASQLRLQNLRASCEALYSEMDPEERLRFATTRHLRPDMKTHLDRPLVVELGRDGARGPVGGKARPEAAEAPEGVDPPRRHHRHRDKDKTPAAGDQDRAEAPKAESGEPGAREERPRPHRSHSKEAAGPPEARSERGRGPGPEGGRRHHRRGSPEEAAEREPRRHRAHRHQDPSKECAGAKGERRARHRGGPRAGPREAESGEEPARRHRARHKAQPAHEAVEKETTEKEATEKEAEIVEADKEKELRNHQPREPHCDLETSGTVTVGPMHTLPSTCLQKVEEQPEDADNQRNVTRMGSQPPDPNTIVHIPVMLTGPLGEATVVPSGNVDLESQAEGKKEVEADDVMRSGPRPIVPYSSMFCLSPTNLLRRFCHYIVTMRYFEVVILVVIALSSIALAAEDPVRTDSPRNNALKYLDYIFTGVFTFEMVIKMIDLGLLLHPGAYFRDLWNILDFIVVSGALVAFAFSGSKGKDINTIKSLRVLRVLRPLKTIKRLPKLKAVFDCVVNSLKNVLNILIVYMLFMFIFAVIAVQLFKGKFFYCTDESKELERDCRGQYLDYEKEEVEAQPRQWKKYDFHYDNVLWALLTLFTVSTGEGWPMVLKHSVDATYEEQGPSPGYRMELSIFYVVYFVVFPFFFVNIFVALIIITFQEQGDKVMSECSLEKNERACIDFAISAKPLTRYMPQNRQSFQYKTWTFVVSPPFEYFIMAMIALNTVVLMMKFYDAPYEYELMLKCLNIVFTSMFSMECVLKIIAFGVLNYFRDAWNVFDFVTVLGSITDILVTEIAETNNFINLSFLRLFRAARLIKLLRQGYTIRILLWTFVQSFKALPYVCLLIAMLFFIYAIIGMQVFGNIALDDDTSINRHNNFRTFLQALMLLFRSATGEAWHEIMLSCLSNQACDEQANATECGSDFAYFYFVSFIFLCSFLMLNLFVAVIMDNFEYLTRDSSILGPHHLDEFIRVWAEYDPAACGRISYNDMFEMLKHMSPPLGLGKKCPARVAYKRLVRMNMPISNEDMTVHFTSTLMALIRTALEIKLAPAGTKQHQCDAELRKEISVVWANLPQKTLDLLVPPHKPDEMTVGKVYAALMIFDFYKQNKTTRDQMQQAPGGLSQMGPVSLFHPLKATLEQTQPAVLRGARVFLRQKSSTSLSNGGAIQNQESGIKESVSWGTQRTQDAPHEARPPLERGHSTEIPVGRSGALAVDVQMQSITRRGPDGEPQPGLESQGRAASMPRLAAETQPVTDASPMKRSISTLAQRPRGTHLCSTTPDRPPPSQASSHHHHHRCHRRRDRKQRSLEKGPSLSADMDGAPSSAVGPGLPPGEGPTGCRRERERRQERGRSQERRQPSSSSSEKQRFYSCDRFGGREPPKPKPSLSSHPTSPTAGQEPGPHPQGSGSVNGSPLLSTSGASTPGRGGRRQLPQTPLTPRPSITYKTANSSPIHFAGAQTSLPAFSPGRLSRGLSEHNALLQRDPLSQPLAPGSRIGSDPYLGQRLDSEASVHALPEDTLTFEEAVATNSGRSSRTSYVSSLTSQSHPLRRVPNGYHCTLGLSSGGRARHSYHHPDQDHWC
T1 sequence (Q02410 whole entry): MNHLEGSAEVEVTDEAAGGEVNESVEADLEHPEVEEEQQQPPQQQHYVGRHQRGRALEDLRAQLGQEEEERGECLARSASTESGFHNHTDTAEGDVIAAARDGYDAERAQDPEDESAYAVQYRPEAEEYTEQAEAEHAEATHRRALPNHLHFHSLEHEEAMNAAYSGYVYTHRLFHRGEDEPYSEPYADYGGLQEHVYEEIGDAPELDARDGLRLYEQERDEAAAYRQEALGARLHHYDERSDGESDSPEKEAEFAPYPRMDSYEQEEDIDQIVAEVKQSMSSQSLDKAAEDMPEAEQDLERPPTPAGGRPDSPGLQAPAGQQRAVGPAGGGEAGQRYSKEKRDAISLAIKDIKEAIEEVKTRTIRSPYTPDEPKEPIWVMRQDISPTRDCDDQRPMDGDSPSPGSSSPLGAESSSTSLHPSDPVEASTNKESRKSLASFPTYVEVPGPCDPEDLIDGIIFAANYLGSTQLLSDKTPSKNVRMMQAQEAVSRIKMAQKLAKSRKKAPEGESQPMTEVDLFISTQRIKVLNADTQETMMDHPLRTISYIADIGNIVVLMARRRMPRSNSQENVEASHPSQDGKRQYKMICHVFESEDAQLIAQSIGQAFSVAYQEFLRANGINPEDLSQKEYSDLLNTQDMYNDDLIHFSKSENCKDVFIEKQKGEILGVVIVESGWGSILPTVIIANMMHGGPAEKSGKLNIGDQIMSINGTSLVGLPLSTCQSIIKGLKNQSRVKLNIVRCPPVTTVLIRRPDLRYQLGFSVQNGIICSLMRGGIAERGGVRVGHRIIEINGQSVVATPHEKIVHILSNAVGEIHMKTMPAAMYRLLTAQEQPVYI
Cytochrome P450 2D6, sequence (P10635 whole entry): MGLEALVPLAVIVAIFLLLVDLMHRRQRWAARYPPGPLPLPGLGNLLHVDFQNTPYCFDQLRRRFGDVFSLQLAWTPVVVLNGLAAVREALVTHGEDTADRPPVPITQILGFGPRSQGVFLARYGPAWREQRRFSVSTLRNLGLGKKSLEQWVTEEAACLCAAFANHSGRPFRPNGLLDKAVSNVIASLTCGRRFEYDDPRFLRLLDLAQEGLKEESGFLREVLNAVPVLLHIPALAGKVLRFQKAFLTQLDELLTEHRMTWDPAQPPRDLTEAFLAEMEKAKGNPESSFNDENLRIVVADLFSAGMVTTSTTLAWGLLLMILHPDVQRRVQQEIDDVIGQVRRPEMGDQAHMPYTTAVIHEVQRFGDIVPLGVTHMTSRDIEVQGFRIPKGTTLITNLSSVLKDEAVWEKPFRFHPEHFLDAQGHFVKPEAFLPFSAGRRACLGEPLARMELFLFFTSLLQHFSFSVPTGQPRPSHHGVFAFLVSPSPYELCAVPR
Hexokinase HKDC1, sequence (Q2TB90 whole entry): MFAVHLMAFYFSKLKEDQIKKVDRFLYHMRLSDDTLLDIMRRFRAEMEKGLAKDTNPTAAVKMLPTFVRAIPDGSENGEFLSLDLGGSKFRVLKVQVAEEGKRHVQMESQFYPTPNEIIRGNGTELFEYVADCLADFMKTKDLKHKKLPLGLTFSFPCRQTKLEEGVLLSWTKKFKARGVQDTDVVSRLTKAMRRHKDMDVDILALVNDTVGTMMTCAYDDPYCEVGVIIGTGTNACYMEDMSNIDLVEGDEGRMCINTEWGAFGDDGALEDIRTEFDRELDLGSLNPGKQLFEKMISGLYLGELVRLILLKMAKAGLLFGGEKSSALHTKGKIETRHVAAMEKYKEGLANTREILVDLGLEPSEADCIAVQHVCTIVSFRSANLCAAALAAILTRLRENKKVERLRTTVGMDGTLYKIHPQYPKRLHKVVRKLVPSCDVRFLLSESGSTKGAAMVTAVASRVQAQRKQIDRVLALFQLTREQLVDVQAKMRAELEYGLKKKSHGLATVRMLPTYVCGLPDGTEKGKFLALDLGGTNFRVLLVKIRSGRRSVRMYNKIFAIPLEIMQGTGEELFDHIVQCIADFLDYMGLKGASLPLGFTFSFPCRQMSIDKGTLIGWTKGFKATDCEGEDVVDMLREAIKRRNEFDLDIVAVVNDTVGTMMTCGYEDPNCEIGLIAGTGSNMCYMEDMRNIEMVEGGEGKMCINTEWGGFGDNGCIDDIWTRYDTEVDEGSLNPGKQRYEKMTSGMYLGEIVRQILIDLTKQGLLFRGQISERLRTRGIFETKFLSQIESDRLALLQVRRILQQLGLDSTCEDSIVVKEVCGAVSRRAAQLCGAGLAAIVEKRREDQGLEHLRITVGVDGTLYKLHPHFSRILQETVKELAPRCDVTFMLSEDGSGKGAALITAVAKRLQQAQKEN
Cytochrome P450 2C9, sequence (P11712 whole entry): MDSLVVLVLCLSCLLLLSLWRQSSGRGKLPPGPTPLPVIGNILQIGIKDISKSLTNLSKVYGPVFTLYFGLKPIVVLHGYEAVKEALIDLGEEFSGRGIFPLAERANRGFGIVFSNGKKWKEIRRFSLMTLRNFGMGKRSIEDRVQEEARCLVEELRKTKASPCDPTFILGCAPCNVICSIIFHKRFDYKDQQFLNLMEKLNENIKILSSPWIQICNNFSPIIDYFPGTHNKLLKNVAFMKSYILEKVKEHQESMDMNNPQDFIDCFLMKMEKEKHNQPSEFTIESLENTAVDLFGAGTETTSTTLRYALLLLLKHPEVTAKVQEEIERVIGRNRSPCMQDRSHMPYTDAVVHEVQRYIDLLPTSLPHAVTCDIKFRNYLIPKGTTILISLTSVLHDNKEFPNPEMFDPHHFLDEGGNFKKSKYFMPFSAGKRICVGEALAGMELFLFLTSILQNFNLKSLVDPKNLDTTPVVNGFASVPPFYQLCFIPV

With `COC(=O)c1cc(-c2ccc(OC)cc2)on1` as the molecule, how does the IC50 (cells [1]) read?
Its IC50 is 3.5 µM (active).

And the AC50 [2]?
The AC50 was 0.67 µM (active).

For `O=C(N/N=C/c1cccnc1)c1cccc(Cl)c1`, which EC50 [3] is on record?
Its EC50 is > 50 µM (active).

Which IC50 (Hexokinase HKDC1) does the source give for `CCC(c1ccccc1)C(CC)c1cc(O)c(O)c(O)c1` (stereo not drawn) here?
Its IC50 is 18.3 µM (active).

And the IC50 (Genome polyprotein)?
The IC50 was 39.4 µM (active).

With `CCC(C)NC(=O)c1c(N)n(/N=C/c2cccnc2)c2nc3ccccc3nc12` (stereo not drawn) as the molecule, how does the EC50 (Melanocortin receptor 4) read?
Its EC50 is > 89.2 µM (inactive).

And the EC50 [4]?
Its EC50 is > 40 µM (inactive).

For `CC(C)(C)OC(=O)NN=C(S)NC1CCCCC1`, which IC50 [5] is on record?
Its IC50 is > 100 µM (active).

Which results are given for `COc1cc(/N=c2\ssnc2Cl)cc(OC)c1`?
IC50 (cells [1]): 39.2 µM (active); IC50 [6]: 0.738 µM (active); IC50 [7]: 22.6 µM (active); IC50 [8]: 19.6 µM (active); IC50 [9]: 6.42 µM (active); IC50 [10]: > 80 µM (inactive)

For `Cc1ccc(OCC(=O)N/N=C/c2cn(C)c3ccccc23)cc1`, which CC50 [11] is on record?
Its CC50 is > 40 µM (active).

Which AC50 (Cytochrome P450 2D6) does the source give for `O=c1cc(-c2ccccc2)oc2c1ccc1ccccc12` [ALPHA-NAPHTHOFLAVONE] here?
The AC50 was 12.6 µM (inconclusive).

What about the AC50 (Cytochrome P450 2C9) of the same molecule?
Its AC50 is 7.94 µM (inconclusive).

What does the source list for `Cc1cc(C)n(-c2nnc(N3CCN(c4ccc(F)cc4)CC3)nn2)n1`?
IC50 [8]: > 50 µM (not active); IC50 [12]: > 50 µM (not active)

With `C#CCOCCOCCOCCNc1nc(N2CCN(C(=O)CCCCCCCCCCNC(=O)[C@@H]([C@H](C)O)n3cc(C)nn3)CC2)nc(N2CCN(C(=O)CCCCCCCCCCNC(=O)[C@@H]([C@H](C)O)n3cc(C)nn3)CC2)n1` as the molecule, how does the IC50 (cells [13]) read?
Its IC50 is 15.1 µM (active).

Which IC50 [14] does the source give for `COc1ccc(N(C(=O)C2CCCCC2)S(=O)(=O)c2cccc3cccnc23)cc1` here?
The IC50 was > 35 µM (not active).

And the IC50 [15]?
The IC50 was > 35 µM (not active).

For `O=C(O)[C@@H]1[C@@H]2C[C@H]3c4[nH]c5ccccc5c4CCN3C[C@@H]2CC[C@@H]1O`, which AC50 (Cytochrome P450 2D6) is on record?
Its AC50 is 31.6 µM (inconclusive).
